The values below come from ChEMBL document CHEMBL5465560, “Selectivity Literature for EUbOPEN Chemogenomic Library” (2024).

For test [1], the target named is Cyclin-dependent kinase 13 (Homo sapiens, UniProt Q14004). Description: Selectivity interaction (Ambit KINOMEscan and KiNATiv profiling in Jurkat cells) EUB0000090b CDK13. Format: cell-based. The following applies: at 1 µM.
Test [2] has as its target Macrophage-stimulating protein receptor (Homo sapiens, UniProt Q04912). Description: Selectivity interaction (KinomeScan (DiscoverX)) EUB0000045b MST1R.
Test [3] deals with T1, Serine/threonine-protein kinase ULK1 (Homo sapiens) (UniProt O75385).
T1 sequence (whole entry): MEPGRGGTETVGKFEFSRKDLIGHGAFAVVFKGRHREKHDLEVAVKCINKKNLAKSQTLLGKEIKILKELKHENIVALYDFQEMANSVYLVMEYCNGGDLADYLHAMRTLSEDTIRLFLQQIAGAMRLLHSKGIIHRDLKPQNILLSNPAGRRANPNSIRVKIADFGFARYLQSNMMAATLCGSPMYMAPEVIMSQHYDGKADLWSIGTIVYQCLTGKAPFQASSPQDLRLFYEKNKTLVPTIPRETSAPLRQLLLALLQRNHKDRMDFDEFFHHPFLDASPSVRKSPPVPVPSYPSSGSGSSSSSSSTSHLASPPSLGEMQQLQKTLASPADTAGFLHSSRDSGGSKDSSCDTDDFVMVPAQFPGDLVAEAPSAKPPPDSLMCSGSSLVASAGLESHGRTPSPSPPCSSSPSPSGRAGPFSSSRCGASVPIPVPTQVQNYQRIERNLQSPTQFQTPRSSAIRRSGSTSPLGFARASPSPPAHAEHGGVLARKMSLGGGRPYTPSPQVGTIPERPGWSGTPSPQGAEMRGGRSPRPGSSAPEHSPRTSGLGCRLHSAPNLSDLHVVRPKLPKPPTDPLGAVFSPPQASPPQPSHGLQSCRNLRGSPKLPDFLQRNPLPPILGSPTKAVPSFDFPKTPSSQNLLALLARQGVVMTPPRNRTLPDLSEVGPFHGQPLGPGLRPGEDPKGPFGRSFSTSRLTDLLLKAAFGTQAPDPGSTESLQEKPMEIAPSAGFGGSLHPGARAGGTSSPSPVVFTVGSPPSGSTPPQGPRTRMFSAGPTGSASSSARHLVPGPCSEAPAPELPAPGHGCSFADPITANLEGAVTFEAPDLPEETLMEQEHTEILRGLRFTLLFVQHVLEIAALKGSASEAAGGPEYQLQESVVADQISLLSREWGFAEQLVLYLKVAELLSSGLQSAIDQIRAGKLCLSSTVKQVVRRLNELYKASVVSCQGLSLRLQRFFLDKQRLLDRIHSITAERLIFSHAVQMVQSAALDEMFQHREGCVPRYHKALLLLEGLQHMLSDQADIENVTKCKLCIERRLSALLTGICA
Description: Selectivity interaction (ActivX KiNativ screen (kinase selectivity in THP-1 cell lysates)) EUB0000639a ULK1. It counts as subcellular. The following applies: lysate.

Test [4] concerns the target Serine/threonine-protein kinase mTOR (Homo sapiens, UniProt P42345). Kind of test: Selectivity interaction (Kinase panel (Invitrogen)) EUB0000639a MTOR. The note with it: at 200 nM.
In test [5] the target is Cyclin-dependent kinase 17 (Homo sapiens) (UniProt Q00537). Kind of test: Selectivity interaction (ActivX KiNativ screen (kinase selectivity in THP-1 cell lysates)) EUB0000639a CDK17. Format: subcellular. The note with it: lysate, at 0.01 µM.
In test [6] the target is T2, Rhodopsin kinase GRK7 (Homo sapiens) (UniProt Q8WTQ7).
T2 sequence (whole entry): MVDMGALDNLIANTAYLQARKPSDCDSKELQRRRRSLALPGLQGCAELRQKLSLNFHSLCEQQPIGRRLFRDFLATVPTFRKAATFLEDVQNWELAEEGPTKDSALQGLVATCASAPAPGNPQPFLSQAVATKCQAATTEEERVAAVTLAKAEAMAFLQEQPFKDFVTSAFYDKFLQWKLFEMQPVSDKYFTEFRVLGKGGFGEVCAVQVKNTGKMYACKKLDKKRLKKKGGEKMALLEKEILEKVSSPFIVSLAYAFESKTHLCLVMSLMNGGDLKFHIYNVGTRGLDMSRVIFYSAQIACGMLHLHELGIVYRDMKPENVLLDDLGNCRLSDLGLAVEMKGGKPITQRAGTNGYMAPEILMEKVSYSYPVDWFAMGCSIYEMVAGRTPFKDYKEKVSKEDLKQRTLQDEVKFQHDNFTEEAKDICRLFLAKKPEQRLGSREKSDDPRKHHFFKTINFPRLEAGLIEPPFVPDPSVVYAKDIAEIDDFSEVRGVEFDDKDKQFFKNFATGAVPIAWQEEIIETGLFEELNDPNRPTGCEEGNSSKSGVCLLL
Kind of test: Selectivity interaction (KinomeScan (DiscoverX)) EUB0000595a GRK7. The following applies: at 10 µM.

For test [7], the target named is T3, Mitogen-activated protein kinase kinase kinase 2 (Homo sapiens) (UniProt Q9Y2U5).
T3 sequence (whole entry): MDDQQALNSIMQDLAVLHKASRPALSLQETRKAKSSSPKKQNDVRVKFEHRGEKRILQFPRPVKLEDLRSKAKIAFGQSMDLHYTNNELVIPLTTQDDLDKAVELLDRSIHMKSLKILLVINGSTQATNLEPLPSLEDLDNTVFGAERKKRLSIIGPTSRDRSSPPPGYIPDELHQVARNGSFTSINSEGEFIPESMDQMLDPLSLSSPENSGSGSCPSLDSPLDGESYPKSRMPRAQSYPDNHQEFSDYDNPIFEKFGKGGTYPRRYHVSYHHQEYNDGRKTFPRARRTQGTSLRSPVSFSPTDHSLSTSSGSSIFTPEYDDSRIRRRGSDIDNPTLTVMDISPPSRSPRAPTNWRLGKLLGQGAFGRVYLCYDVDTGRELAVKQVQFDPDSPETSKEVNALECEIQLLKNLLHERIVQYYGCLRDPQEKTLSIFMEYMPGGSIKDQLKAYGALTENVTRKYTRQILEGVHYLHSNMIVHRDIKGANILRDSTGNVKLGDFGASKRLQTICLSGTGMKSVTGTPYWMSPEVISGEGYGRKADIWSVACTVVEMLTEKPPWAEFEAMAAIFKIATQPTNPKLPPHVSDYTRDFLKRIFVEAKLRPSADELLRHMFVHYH
Kind of test: Selectivity interaction (Kinase panel (KiNativ target engagement assay in Jurkat cells)) EUB0001635a MAP3K2. The following applies: at 1 µM. Format: cell-based.

Macrophage-stimulating protein receptor, sequence (Q04912 25-304 limits assumed): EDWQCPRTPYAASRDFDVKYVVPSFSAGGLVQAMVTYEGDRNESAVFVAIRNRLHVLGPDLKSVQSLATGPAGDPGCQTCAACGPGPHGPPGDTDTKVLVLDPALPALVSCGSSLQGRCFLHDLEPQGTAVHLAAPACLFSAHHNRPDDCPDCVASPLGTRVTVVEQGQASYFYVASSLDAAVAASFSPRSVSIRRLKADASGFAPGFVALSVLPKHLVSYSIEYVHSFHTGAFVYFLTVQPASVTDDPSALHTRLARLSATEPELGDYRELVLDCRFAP
Macrophage-stimulating protein receptor, sequence (Q04912 310-1400 limits assumed): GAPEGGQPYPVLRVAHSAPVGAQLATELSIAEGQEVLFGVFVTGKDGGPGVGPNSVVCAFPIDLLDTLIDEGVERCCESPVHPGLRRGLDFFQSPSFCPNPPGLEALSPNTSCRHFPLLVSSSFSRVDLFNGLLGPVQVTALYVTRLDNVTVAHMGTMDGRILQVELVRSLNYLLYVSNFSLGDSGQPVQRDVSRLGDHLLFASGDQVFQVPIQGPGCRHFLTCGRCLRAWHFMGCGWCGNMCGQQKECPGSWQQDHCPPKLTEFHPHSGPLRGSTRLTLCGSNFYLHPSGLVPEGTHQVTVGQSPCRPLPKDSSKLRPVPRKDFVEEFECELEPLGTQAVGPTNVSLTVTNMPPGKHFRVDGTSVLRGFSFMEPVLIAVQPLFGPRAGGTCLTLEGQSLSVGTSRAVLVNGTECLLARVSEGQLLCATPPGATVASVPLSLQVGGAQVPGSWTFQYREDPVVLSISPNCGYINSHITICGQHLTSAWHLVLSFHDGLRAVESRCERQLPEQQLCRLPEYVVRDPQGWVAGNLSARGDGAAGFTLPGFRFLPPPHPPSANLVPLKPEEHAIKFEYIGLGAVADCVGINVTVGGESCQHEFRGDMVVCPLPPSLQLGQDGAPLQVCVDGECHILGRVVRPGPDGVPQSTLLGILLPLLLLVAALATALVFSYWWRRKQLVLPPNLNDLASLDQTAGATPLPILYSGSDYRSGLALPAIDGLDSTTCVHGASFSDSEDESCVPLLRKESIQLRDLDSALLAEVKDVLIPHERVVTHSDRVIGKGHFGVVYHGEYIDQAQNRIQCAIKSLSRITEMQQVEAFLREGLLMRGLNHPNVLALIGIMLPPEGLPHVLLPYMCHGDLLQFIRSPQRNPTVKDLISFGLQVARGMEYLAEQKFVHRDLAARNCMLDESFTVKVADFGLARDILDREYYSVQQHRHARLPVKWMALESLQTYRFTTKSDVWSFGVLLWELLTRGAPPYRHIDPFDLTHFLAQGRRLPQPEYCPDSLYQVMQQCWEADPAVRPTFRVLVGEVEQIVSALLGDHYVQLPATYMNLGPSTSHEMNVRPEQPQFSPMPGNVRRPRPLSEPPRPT
Cyclin-dependent kinase 13, sequence (Q14004 whole entry, looked up): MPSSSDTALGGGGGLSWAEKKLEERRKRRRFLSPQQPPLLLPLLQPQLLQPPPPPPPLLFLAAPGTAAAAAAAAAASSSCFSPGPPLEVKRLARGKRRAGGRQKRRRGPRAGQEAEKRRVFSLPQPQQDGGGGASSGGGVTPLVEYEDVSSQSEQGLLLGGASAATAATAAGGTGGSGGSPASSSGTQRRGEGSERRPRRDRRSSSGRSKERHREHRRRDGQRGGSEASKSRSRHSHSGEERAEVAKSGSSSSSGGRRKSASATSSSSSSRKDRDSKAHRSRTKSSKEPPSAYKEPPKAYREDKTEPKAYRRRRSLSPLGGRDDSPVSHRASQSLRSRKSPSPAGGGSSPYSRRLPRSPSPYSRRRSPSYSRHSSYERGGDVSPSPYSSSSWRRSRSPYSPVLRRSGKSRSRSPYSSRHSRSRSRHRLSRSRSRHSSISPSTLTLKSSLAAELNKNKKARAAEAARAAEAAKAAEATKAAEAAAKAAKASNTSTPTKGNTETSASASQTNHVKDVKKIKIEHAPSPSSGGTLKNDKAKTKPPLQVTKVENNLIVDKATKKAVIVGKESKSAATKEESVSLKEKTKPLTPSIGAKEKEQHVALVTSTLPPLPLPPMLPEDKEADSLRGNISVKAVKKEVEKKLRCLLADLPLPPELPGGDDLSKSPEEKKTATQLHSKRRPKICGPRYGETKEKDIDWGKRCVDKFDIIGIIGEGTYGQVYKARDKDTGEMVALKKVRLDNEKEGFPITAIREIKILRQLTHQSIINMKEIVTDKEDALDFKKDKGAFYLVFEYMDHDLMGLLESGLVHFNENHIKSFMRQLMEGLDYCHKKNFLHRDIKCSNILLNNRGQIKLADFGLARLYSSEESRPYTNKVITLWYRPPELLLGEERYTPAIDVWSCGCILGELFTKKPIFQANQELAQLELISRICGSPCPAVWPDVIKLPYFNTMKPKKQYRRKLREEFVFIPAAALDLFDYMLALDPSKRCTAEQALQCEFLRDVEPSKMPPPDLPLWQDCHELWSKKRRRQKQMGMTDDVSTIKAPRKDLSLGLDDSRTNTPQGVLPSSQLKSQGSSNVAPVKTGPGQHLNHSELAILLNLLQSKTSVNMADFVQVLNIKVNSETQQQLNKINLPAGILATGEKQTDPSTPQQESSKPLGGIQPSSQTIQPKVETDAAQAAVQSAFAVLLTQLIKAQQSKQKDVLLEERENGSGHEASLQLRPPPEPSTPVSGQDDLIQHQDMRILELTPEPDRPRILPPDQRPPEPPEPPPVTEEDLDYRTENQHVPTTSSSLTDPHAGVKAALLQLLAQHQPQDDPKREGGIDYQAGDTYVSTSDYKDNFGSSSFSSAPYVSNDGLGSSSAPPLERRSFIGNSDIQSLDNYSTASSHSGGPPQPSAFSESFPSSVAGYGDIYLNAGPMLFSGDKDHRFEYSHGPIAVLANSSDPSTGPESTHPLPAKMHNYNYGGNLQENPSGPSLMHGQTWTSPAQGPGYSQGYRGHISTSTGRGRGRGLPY
Cyclin-dependent kinase 17 (Homo sapiens), sequence (Q00537 whole entry, looked up): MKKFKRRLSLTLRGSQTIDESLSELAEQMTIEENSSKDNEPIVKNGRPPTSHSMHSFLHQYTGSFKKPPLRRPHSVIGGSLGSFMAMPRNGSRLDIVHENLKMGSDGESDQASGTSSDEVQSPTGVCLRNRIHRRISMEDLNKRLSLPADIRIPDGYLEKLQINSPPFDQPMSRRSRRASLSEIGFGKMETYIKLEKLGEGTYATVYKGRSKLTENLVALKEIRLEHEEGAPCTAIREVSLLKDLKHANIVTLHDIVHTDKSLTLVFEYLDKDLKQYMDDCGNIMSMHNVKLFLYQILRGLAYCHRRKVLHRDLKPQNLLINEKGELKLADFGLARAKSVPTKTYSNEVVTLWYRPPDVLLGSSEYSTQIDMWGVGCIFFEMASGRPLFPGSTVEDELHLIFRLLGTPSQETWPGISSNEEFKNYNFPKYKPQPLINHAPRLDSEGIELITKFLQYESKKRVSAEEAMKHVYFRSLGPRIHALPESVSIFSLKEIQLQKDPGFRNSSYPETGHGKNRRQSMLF

Turning to `CN(C)C/C=C/C(=O)Nc1ccc(C(=O)N2CCCC(Nc3ncc(Cl)c(-c4c[nH]c5ccccc45)n3)C2)cc1` (stereo not drawn), in test [1], the % of control came to 2.8%.
As to `C=CC(=O)Nc1cc(-n2c(=O)ccc3cnc4ccc(-c5ccc(NS(C)(=O)=O)cc5)cc4c32)ccc1C`, the % of control in test [2] (at 1 µM) and in test [2] (at 10 µM) was 100% throughout.
As for `CC[C@@H]1[C@H](F)C(=O)N[C@@H]1COc1nccc2cc(C(N)=O)c(OC)cc12` [ZIMLOVISERTIB], the % of inhibition in test [3] (at 0.01 µM) was 4.8%; in test [3] (at 0.04 µM) it was 4.1%; in test [3] (at 0.2 µM), 6.2%; in test [3] (at 1 µM) it was -18.5%; in test [3] (at 5 µM) it was 8%; in test [4], 3.37%. Also, the % of inhibition in test [5] worked out at 16.3%.
`COCC(=O)NC/C=C/c1ccc2ncnc(Nc3ccc(Oc4ccc(C)nc4)c(C)c3)c2c1` [CP-724714] had a % of control in test [6] of 100%.
As for `C=CC(=O)Nc1ccc(C(=O)Nc2[nH]nc3c2CN(C(=O)N[C@H](CN(C)C)c2ccccc2)C3(C)C)cc1`, the % of engagement in test [7] (Selectivity number of off-targets 0.0, Selectivity number of targets 233.0, Source Knowledge https://www.sciencedirect.com/science/article/pii/S2451945619300674?via%3Dihub) was -1.5%; in test [7], -1.9%.
